Laboratory results published in patent US5736556A, “Tropane-2-aldoxime derivatives as nevro transmitter reuptake inhibitors” (NeuroSearch A/S, priority 1994, dated 1998).
Where a name gives a salt, the structure may show the parent alone.

Experiments:
dopamine transporter = target: T1, dopamine transporter (Rattus norvegicus, UniProt P23977); assay: In vitro inhibition of ^3 H-WIN 35428 binding (corpus striatum); design: species or system rat (male Wistar); settings: rat corpus striatum, ^3 H-WIN 35428 1 nM, 60 min at 2° C.; read-out: in vitro IC50
T1 construct: Corpus striatum from male Wistar rats (150-200 g) is homogenized; from tissue; host or cells: corpus striatum of male Wistar rats
Text: The compounds of the present invention have been tested for their ability to bind to the dopamine transporter in the following tests for in vitro and in vivo inhibition of ^3 H-WIN 35428.
In vitro inhibition of ^3 H-WIN 35428 binding
Dopamine transporters/uptake sites on nerve terminals presumably function to terminate neuronal signaling by removing dopamine from the synaptic cleft. The activity or presence of the dopamine transporter integral protein can be measured in vitro with synaptosomal uptake of ^3 H-dopamine or membrane binding assays with ^3 H-ligands known to bind to the transporter.
Numerous ligands of several structural types have been reported to bind at the dopamine uptake site, but it remains questionable whether their binding sites are identical to that of cocaine.
Tissue preparation: Preparations are performed at 0°-4° C. unless otherwise indicated. Corpus striatum from male Wistar rats (150-200 g) is homogenized for 5-10 sec in 10 ml NaH2 PO4 (50 mM, pH 7.4) using an Ultra-Turrax homogenizer. The suspension is centrifuged at 27,000×g for 15 min. The supernatant is discarded and the pellet is resuspended in 50 mM NaH2 PO4, pH 7.4 (1000 ml per g of original tissue) and used for binding assays.
Assay: Aliquots of 0.5 ml tissue are added to […] of ^3 H-WIN 35428 (1 nM, final concentration), mixed and incubated for 60 min at 2° C. Non-specific binding is determined using cocaine ([…], final concentration). After incubation the samples are added 5 ml of ice-cold buffer and poured directly onto Whatman GF/C glass fibre filters under suction and immediately washed with 5 ml ice-cold buffer. The amount of radioactivity on the filters is determined by conventional liquid scintillation counting. Specific binding is total binding minus non-specific binding.
25-75% inhibition of specific binding must be obtained, before calculation of an IC50. The test value is given as IC50 (the concentration (μM) of the test substance which inhibits the specific binding of ^3 H-WIN 35428 by 50%).

[1] = target: T2, dopamine transporter (^3 H-dopamine uptake) (Rattus norvegicus, UniProt P23977); assay: In vitro inhibition of ^3 H-dopamine (^3 H-DA) uptake in striatal synaptosomes; type: biochemical, rat (male Wistar); settings: ^3 H-DA 1 nM, 25 min at 37° C.
T2 construct: Corpi striati from male Wistar rats (150-200 g) are homogenized; from tissue; host or cells: P2 synaptosomes of corpus striatum, male Wistar rats
Text: The compounds of the invention have also been tested for their ability to inhibit reuptake of dopamine(DA) noradrenalin(NA) and serotonin(5-HT) in synaptosomes.
Specific neurotransmitter transporters/uptake sites on nerve terminals presumably function to terminate neuronal signaling by removing the neurotransmitters dopamine, noradrenaline and serotonin, respectively, from the synaptic cleft. The activity of the transporter integral proteins can be measured in vitro by synaptosomal uptake of ^3 H-dopamine, ^3 H-noradrenaline and ^3 H-serotonine, respectively.
In vitro inhibition of ^3 H-dopamine (^3 H-DA) uptake in striatal synaptosomes
Tissue preparations: Preparations are performed at 0°-4° C. unless otherwise indicated. Corpi striati from male Wistar rats (150-200 g) are homogenized for 5-10 sec in 100 volumes of ice-cold 0.32M sucrose containing 1 mM pargyline using an Ultra-Turrax homogenizer. Monoamine oxidase activity will be inhibited in the presence of pargyline. The homogenate is centrifuged at 1000×g for 10 min. The resulting supermatant is then centrifuged at 27,000×g for 50 min and the supernatant is discarded. The pellet (P2) is resuspended in oxygenated (equilibrated with an atmosphere of 96% O2 : 4% CO2 for at least 30 min) Krebs-Ringer incubation buffer (8000 ml per g of original tissue) at pH 7.2 containing 122 mM NaCl, 0.16 mM EDTA, 4.8 mM KCl, 12.7 mM Na2 HPO4, 3.0 mM NaH2 PO4, 1.2 mM MgSO4, 1 mM CaCl2, 10 mM glucose and 1 mM ascorbic acid.
Assay: Aliquots of 4.0 ml tissue suspension are added to 100 μl of test solution and 100 μl of ^3 H-DA (1 nM, final concentration), mixed and incubated for 25 min at 37° C. Non-specific uptake is determined using benztropine (10 μM, final concentration). After incubation the samples are poured directly onto Whatman GF/C glass fibre filters under suction. […] The amount of radioactivity on the filters is determined by conventional liquid scintillation counting. Specific uptake is calculated as the difference between total uptake and non-specific uptake. […]

[2] = system: immobility time of mice suspended by the tail; assay: Tail Suspension; type: in vivo, mice (female NMRI); settings: Mus musculus, 0.5 h, oral, 30 min before test, dose reducing the immobility to 100 sec
Experimental: A decrease in the immobility time by mice suspended in their tail is seen after systemic administration of central stimulants and by antidepressants (Steru, L., Chermat, R., Thierry, B. & Simon, P. (1985) The tail suspension test: A new method for screening antidepressants in mice. Psychopharmacology 85:367-370.).
Female NMRI mice (20-25 g) habituated to the room (12 hours light/dark) for at least 16 hours and housed 25 per cage are used. The mice are suspended by the tail with adhesive tape to a rod 30 cm above the lab. bench 30 min after an oral administation of vehicle or drug. For the next 6 min the accumulated duration of immobility defined as no movements by the body or extremities (however head movements are not defined as movements) are noted, Six mice per dose are used.
Saline or vehicle treated mice have immobility time scores between 160-180 sec in average. An ED50 -value is calculated by graphical interpolation from at least 3 doses as the dose reducing the immobility to 100 sec.

T2 sequence (P23977 whole entry): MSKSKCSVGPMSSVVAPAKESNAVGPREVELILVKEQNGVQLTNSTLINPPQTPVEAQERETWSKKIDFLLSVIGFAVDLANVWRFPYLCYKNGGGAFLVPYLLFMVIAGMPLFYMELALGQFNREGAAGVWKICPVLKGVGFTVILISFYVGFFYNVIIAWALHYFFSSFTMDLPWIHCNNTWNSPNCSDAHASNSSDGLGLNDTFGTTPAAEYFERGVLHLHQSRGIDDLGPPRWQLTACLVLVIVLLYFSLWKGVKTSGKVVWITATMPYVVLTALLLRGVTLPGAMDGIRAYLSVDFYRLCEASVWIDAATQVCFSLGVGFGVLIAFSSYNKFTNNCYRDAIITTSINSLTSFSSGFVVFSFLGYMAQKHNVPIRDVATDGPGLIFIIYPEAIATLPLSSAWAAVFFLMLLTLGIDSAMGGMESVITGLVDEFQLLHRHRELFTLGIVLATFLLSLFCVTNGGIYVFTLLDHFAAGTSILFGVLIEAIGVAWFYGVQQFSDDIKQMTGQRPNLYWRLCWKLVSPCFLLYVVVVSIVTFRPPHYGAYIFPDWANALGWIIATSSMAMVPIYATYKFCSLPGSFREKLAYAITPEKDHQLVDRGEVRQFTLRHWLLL
T1 sequence (P23977 whole entry): as above

| SMILES | IC50 (dopamine transporter) [nM] | IC50 [1] [nM] | ED50 [2] [mg/kg] |
| --- | --- | --- | --- |
| CON=C[C@@H]1[C@@H](c2ccc(Cl)c(Cl)c2)C[C@@H]2CC[C@H]1N2C [(1R,2R,3S)-3-(3,4-dichlorophenyl)-tropane-2-O-methyl-aldoxime, H2 SO4] | 3 | 3 | 0.1 |
| CON=C[C@@H]1[C@@H](c2ccc(Cl)c(Cl)c2)C[C@@H]2CC[C@H]1N2 [(1R,2R,3S)-N-Normethyl-3-(3,4-dichlorophenyl)tropane-2-O-methyl-aldoxime, hydrochloride] | 6 | 2 | 0.95 |
